One experiment has as its system inflammation. The settings on record: arthritic mice (Yeh et al., 2021); cited from earlier work.
Another experiment has as its system CD3. Kind of experiment: Immunohistochemistry of B16F10 tumors (Day 17), CD3. Type of experiment: in vivo, mouse. Conditions: B16F10 tumors Day 17, 200 mg/kg i.p. The text has this: Immunohistochemical staining and analyses. Rabbit monoclonal anti-CD3 (cat. no. ab16669; mouse, rat and human reactive), rabbit monoclonal anti-PD-1 (cat. no. ab214421), rabbit monoclonal anti-CD68 (cat. no. ab125212) antibodies were obtained from Abcam, rabbit monoclonal anti-phospho-ERK (Thr^202/Tyr^204) (cat. no. CST4370), rabbit monoclonal total ERK (cat. no. CST4695), antibodies were obtained from Cell Signaling Technology. Rabbit polyclonal anti-PD-L1 (cat. no. PA5-20343) antibody was obtained from ThermoFisher.
Formalin fixed, paraffin embedded sections were prepared from tumors. Heat-induced epitope retrieval was applied to all deparaffinized sections (4 μm sections on Superfrost slides) with citrate buffer, pH 6.0 for 5 min at 110° C. Sections were blocked with Dual Endogenous Enzyme Block (DAKO, S2003) for 10 min and then with 2% skim milk for 20 min. Slides were incubated with primary antibody for 60 min at room temperature or overnight at 4° C. and then for 10 min with probe of MACH3 Rabbit AP-Polymer Detection solution (Biocare Medical, M3R533 G, H, L). […] Integrated optical density (IOD) or area of positive staining (red chromagen) was assessed using Image-Pro Plus software (Cybernetics, Bethesda, MD, USA). Positive staining was the average of quantitation in 4-8 fields of view under 20× or 40× objectives. […]

The test system of experiment [1] is A375 cells. Kind of experiment: Migration assay (scratch), A375. Type of experiment: cell-based, human. The settings on record: 1 μM, 24 h, with greater potency than SCH772984. The method, then: Migration assays. Cells were grown in medium containing 10% FBS in 6-well plates. The following day the cells were scratched with a sterile toothpick, washed with PBS, and incubated in medium containing 10% FBS and vehicle, BT2 or SCH772984 at 1 μM. At 0, 24 h and 48 h the cells were photographed under a 4× objective using an Olympus CKX41 microscope. To assess the effect of BT2 on melanoma cell migration, A375 and MeWo cells were incubated with 1 μM of BT2 or SCH772984, and A375 and MeWo migration into the denuded zone was quantified after 24 or 48 h, respectively.

The subject of the next experiment is DUSP8. As to the kind of experiment: Western blotting for DUSP8, Jurkat T cells. Type of experiment: cell-based, human. The settings on record: 24 h. On the procedure:
Western blotting. Cells were treated with compounds and times indicated and total cell lysates were prepared in RIPA buffer. Lysates (10 μg) were resolved by SDS-PAGE and transferred to Immobilon-P polyvinylidene difluoride (PVDF) membranes (Millipore, USA).
Membranes were blocked with 5% skim milk and incubated with rabbit monoclonal anti-c-Jun (Abcam, cat. no. ab32137; mouse, rat and human reactive) antibody, rabbit monoclonal anti-PD-1 (Abcam, cat. no. ab214421) antibody, mouse monoclonal β-actin antibody (Sigma-Aldrich, cat. no. A5316), anti-phospho-SAPK/JNK (Thr^183/Tyr^185) (98F2) (CST, cat. no. 4671) antibody, anti-phospho-p44/42 MAPK (ERK1/2) (Thr^202/Tyr^204) (D13.14.4E) (CST, cat. no. 4370) antibody, anti-phospho-p38 MAPK (Thr^180/Tyr^182) (D3F9) (CST, cat. no. 4511) antibody, anti-SAPK/JNK antibody (CST, cat. no. 9252), anti-p44/42 MAPK (ERK1/2) (137F5) antibody (CST, cat. no. 4695), anti-p38 MAPK antibody (CST, cat. no. 9212), anti-DUSP8 antibody (Abcam, cat. no. ab198175) or anti-c-MAF (BLR045F) antibody (Abcam, cat. no. ab243901). […] Chemiluminescence was detected using the Western Lightning Chemiluminescence system (Thermo Scientific, USA) and ImageQuant™ LAS 4000 biomolecular imager (GE Healthcare Life Sciences, USA). Band intensity in images generated with the LAS 4000 was quantified using NIH Image J. […]
For orientation: A western blot detects proteins with antibodies after separation by electrophoresis.

The subject of experiment [2] is A375 cells. Kind of experiment: Apoptosis, flow cytometry with Annexin V-FITC, A375. Conditions: 1 μM, 24 h. Format: cell-based, human. The method, then:
Flow cytometry with Annexin V-FITC. Cells were seeded into 6 well plates in normal culture medium containing 10% FBS. After culturing overnight, the cells were incubated in complete medium containing vehicle, BT2 or SCH772984 at 1 μM and left for 24 h. The culture medium was removed and the cells were washed with PBS. Accutase (Stem Cell Technologies, cat. no. 07920) was used to detach the cells. The cells were then washed and centrifuged at 300 g for 5 min and resuspended at 1×10^6 cells/ml in 500 μl of 1× binding buffer (Annexin V-FITC Apoptosis Staining/Detection Kit, Abcam, cat. no. ab14085). The cells were transferred to 12×75 mm tubes and annexin V-FITC/propidium iodide (PI) was added and incubated for 5 min at 22° C. protected from light. Stained cell suspensions were analyzed by flow cytometry using a BD LSRFortessa X20.
The morphology of A375 and MeWo cells exposed to 1 μM of BT2 or SCH772984 for 24 h was also assessed.
In general terms: A flow cytometer gives signals particle by particle.

Each structure is given as a SMILES string.

As for `CCOC(=O)Nc1ccc2c(c1)C(=O)N(CC)c1ccccc1O2` [BT2, (10-ethyl-11-oxo-10,11-dihydro-dibenzo[b,f][1,4]oxazepin-2-yl)-carbamic acid ethyl ester], the anti-inflammatory properties result with inflammation is “possesses anti-inflammatory properties”. The “CD3+ staining in the tumor periphery (within 250 μm) (IHC)” value in the experiment on CD3 is reported as “stimulated CD3^+ staining in the tumor periphery”. Further, the “migration into the denuded zone” value with A375 cells [1] was “suppressed melanoma migration”. In addition, the “DUSP8 protein levels (Western blot)” value with DUSP8 is given as “elevated”. In addition, in the experiment on A375 cells [2], the “apoptosis (Annexin V-FITC+ PI−)” value is “increased apoptosis”.

The values are drawn from patent US20250352555A1, “METHOD OF INCREASING IMMUNE CELL ACTIVATION AND/OR TREATING CANCER USING DIBENZOXAZEPINONES” (VASCULAR THERAPEUTICS PTY LTD, priority 2022, published 2025).
